Measured values: patent publication US10172823B1, “Method for inhibiting cancer cell growth with a transplatin complex” (KING FAHD UNIVERSITY OF PETROLEUM AND MINERALS, priority 2017, dated 2019)
“Also recorded” adds a separate entry of the source.

How the values were obtained:
[1] = tested on: A549 (human lung cancer) cell line; test: In vitro cytotoxic activity, MTT assay, A549 cell line; settings: for IC50: read-out: IC50 Values against A549, MTT assay, A549 cells, 24 h incubation with compound, three independent experiments, ± standard deviation; for in vitro cytotoxicity compared with cisplatin and carboplatin, A549: A549 cell line, comparison of IC50 values in words
Method: (§1) The trans-[Pt(NH3)2(thione)2].2NO3 complexes were evaluated for in vitro cytotoxic activity against A549 (human lung cancer), MCF-7 (human breast cancer) and HTC15 (human colon cancer) cell lines. The cells were seeded at 4×10^3 cells/well in 100 μL DMEM containing 10% FBS in 96-wells tissue culture plate and incubated for 72 h at 37° C., 5% CO2 in air and 90% relative humidity in CO2 incubator. After incubation, 100 μL of each sample solution (50, 25, 12.5 and 6.25 μM), prepared in DMEM, were added to cells and the cultures were incubated for 24 h. The medium of wells was discarded and 100 μL DMEM containing MTT (3-(4,5-Dimethylthiazol-2-yl)-2,5-diphenyltetrazolium Bromide) (5 mg/mL) was added to the wells and incubated in CO2 incubator at 37° C. in dark for 4 h. After incubation, purple colored formazan (artificial chromogenic dye, product of the reduction of water insoluble tetrazolium salts e.g., MMT by dehydrogenases and reductases) in the cells is produced and appeared as dark crystals in the bottom of the wells. The resultant crystals were solublized by adding 100 μL of DMSO in each well. The solution was thoroughly mixed to dissolve the formazan crystals, producing a purple solution. The absorbance of the 96-wells plate was taken at 570 nm with Labsystems Multiskan EX-Enzyme-linked immunosorbent assay (EX-ELISA) reader against a reagent blank. The IC50 values were calculated from three independent experiments by generating an equation of logarithmic trend line of percentage cell viability against concentration of compounds in Microsoft excel.
(§2) The MTT assay was performed in three independent experiments, each in triplicate. The cancer cell lines used are A549 (human lung cancer), MCF-7 (human breast cancer) and HTC15 (human colon cancer) cell lines. Errors are standard deviations determined from at least three independent experiments.

[2] = tested on: MCF-7 (human breast cancer) cell line; test: In vitro cytotoxic activity, MTT assay, MCF-7 cell line; settings: for IC50: read-out: IC50 Values against MCF7, MTT assay, MCF7 cells, 24 h incubation with compound, three independent experiments, ± standard deviation; for cytotoxicity compared with cisplatin and carboplatin, MCF7: MCF7 cell line, comparison of IC50 values in words
Method: as §1, with “After incubation, 100 μL of each sample solution (50, 25, 12.5 and 6.25 μM), prepared in DMEM, were added to cells and the cultures were incubated for 24 h.” left out
as §2

[3] = tested on: HCT15 (human colon cancer) cell line; test: In vitro cytotoxic activity, MTT assay, HCT15 cell line; format: cell-based; settings: for IC50: MTT assay, HCT15 cells, 24 h incubation with compound, three independent experiments, ± standard deviation, read-out: IC50 Values against HCT15; for activity compared with cisplatin and carboplatin, HCT15: HCT15 cell line, comparison of IC50 values in words
Method: as §1, §2

SMILES: N.N.O=C([O-])C1(C(=O)[O-])CCC1.[Pt+2] [Carboplatin, carboplatin, reference compound]
- IC50 [1]: 70 ± 2 µM
- IC50 [2]: 63 ± 2 µM
- IC50 [3]: 53 ± 2 µM

SMILES: N.N.[Cl][Pt][Cl] [Cisplatin, cisplatin, reference compound]
- IC50 [1]: 42 ± 2 µM
- IC50 [2]: 23 ± 3 µM
- IC50 [3]: 32 ± 2 µM

SMILES: N.N.O=[N+]([O-])[O-].O=[N+]([O-])[O-].S=C1NCCN1.S=C1NCCN1.[Pt+2] [Complex 1, trans-[Pt(NH3)2(Imt)2]. 2NO3]
- in vitro cytotoxicity compared with cisplatin and carboplatin, A549 [1]: slightly lower than cisplatin but still higher than carboplatin
- IC50 [1]: 52 ± 2 µM
- IC50 [2]: 80 ± 1 µM
- activity compared with cisplatin and carboplatin, HCT15 [3]: almost the same cytotoxicity as carboplatin
- IC50 [3]: 50 ± 1 µM

SMILES: CN1CCNC1=S.CN1CCNC1=S.N.N.O=[N+]([O-])[O-].O=[N+]([O-])[O-].[Pt+2] [Complex 2, trans-[Pt(NH3)2(MeImt)2]. 2NO3]
- in vitro cytotoxicity compared with cisplatin and carboplatin, A549 [1]: almost two-fold better than that of carboplatin; also recorded: better cytotoxicity against A549 cancer cell line than cisplatin
- IC50 [1]: 40 µM
- IC50 [2]: 70 ± 2 µM
- activity compared with cisplatin and carboplatin, HCT15 [3]: comparable to cisplatin
- IC50 [3]: 40 µM

SMILES: CN1CCN(C)C1=S.CN1CCN(C)C1=S.N.N.O=[N+]([O-])[O-].O=[N+]([O-])[O-].[Pt+2] [Complex 3, trans-[Pt(NH3)2(Me2Imt)2]. 2NO3]
- in vitro cytotoxicity compared with cisplatin and carboplatin, A549 [1]: the same cytotoxicity as carboplatin
- IC50 [1]: 70 ± 1 µM
- IC50 [2]: 92 ± 2 µM
- activity compared with cisplatin and carboplatin, HCT15 [3]: less potent even than carboplatin
- IC50 [3]: 69 ± 2 µM

SMILES: CCN1CCN(CC)C1=S.CCN1CCN(CC)C1=S.N.N.O=[N+]([O-])[O-].O=[N+]([O-])[O-].[Pt+2] [Complex 4, trans-[Pt(NH3)2(Et2Imt)2]. 2NO3]
- IC50 [1]: 75 ± 1 µM
- IC50 [2]: 89 ± 1 µM
- activity compared with cisplatin and carboplatin, HCT15 [3]: less potent even than carboplatin
- IC50 [3]: 63 ± 1 µM

SMILES: CCCN1CCNC1=S.CCCN1CCNC1=S.N.N.O=[N+]([O-])[O-].O=[N+]([O-])[O-].[Pt+2] [Complex 5, trans-[Pt(NH3)2(PrImt)2]. 2NO3]
- in vitro cytotoxicity compared with cisplatin and carboplatin, A549 [1]: almost two-fold better than that of carboplatin; also recorded: better cytotoxicity against A549 cancer cell line than cisplatin
- IC50 [1]: 41 µM
- cytotoxicity compared with cisplatin and carboplatin, MCF7 [2]: between cisplatin and carboplatin
- IC50 [2]: 45 ± 1 µM
- activity compared with cisplatin and carboplatin, HCT15 [3]: comparable to cisplatin
- IC50 [3]: 36 µM

SMILES: CC(C)N1CCNC1=S.CC(C)N1CCNC1=S.N.N.O=[N+]([O-])[O-].O=[N+]([O-])[O-].[Pt+2] [Complex 6, trans-[Pt(NH3)2(iPrImt)2]. 2NO3]
- in vitro cytotoxicity compared with cisplatin and carboplatin, A549 [1]: slightly lower than cisplatin but still higher than carboplatin
- IC50 [1]: 66 ± 1 µM
- IC50 [2]: 86 ± 2 µM
- activity compared with cisplatin and carboplatin, HCT15 [3]: less potent even than carboplatin
- IC50 [3]: 79 ± 1 µM

SMILES: CC(C)N1CCN(C(C)C)C1=S.CC(C)N1CCN(C(C)C)C1=S.N.N.O=[N+]([O-])[O-].O=[N+]([O-])[O-].[Pt+2] [Complex 7, trans-[Pt(NH3)2(Pr2Imt)2].2 NO3]
- in vitro cytotoxicity compared with cisplatin and carboplatin, A549 [1]: the same cytotoxicity as carboplatin
- IC50 [1]: 69 ± 1 µM
- IC50 [2]: 87 ± 2 µM
- activity compared with cisplatin and carboplatin, HCT15 [3]: almost the same cytotoxicity as carboplatin
- IC50 [3]: 53 ± 1 µM

SMILES: CCN1CCCNC1=S.CCN1CCCNC1=S.N.N.O=[N+]([O-])[O-].O=[N+]([O-])[O-].[Pt+2] [Complex 8, trans-[Pt(NH3)2(EtDiaz)2]. 2NO3]
- in vitro cytotoxicity compared with cisplatin and carboplatin, A549 [1]: slightly lower than cisplatin but still higher than carboplatin
- IC50 [1]: 48 ± 1 µM
- cytotoxicity compared with cisplatin and carboplatin, MCF7 [2]: between cisplatin and carboplatin
- IC50 [2]: 60 ± 2 µM
- activity compared with cisplatin and carboplatin, HCT15 [3]: comparable to cisplatin
- IC50 [3]: 43 µM

SMILES: N.N.O=[N+]([O-])[O-].O=[N+]([O-])[O-].S=C1NCCCCN1.S=C1NCCCCN1.[Pt+2] [Complex 9, trans-[Pt(NH3)2(Diap)2]. 2NO3]
- in vitro cytotoxicity compared with cisplatin and carboplatin, A549 [1]: slightly lower than cisplatin but still higher than carboplatin
- IC50 [1]: 49 ± 1 µM
- IC50 [2]: 69 ± 1 µM
- activity compared with cisplatin and carboplatin, HCT15 [3]: comparable to cisplatin
- IC50 [3]: 41 µM
